Test results as given in patent US12268665B2, “Combination of immunotherapies with MDM2 inhibitors” (ASCENTAGE PHARMA (SUZHOU) CO., LTD., priority 2018, dated 2025).

Assays:
[1] = tested on: stimulated mouse splenocytes; assay: Cytokine production in stimulated mouse splenocytes (MSD V-PLEX); assay type: cell-based; details: 250 nM, 24 h
Protocol: The effect of APG-115 on cytokine production in stimulated mouse splenocytes was investigated. Mouse splenocytes freshly isolated from mice were stimulated with 5 μg/ml plate-bound anti-CD3 and 2 μg/ml anti-CD28 in the presence of APG-115 (250 nM) or DMSO for 24 h. After the treatment, supernatants were collected from the cell cultures and then cytokines were measured by MSD V-PLEX kit which enabled to test 10 cytokines.

MH-22A cells = assay: PD-L1 expression on tumor cells (Western blotting, flow cytometry); assay type: cell-based, mouse; details: 72 h
Protocol: Transcription factor p53 is involved in the regulation of PD-L1 expression (Cortez M A, 2015), which might serve as an indicator of the efficacy of anti-PD-1/PD-L1 treatment. Besides the effects on T cells, how APG-115 effects PD-L1 expression on MH-22A tumor cells was also investigated in vitro.
MH-22A cells were treated with indicated doses of APG-115 for 72 h. The expression levels of MDM2, p53, total STAT3 (t-STAT3), phosphorylated STAT3 (p-STAT3), PD-L1, and β-actin (loading control) expression were determined by Western blotting. PD-L1 expression levels which were reflected by fluorescence intensity were determined by flow cytometry.

[2] = tested on: tumor infiltrating cells in MH-22A syngeneic tumors; assay: TIL analysis by flow cytometry, p53 wt MH-22A syngeneic tumors; assay type: in vivo; details: p53 wt MH-22A tumors
Protocol: (§1) The live/dead fixable dye (Invitrogen) was used to exclude dead cells. The FOXP3 kit from eBioscience was used for FOXP3 staining. Cells were washed and stained for 30 min on ice with indicated antibodies in MACS buffer or Brilliant staining buffer. Samples were than analyzed on Life Technology Attune NxT flow cytometer.
Mice were euthanized on day 7, and tumors were mechanically dissociated and digested with Collagenase IV (Sigma), hyaluronic acid (Sigma) and DNase (Sigma). Single-cell suspensions were prepared and stained against the indicated markers for flow cytometry analysis. Tumor samples were collected 24 hrs post last dosing.
On d7, when the mean tumor volume reached approximately 300-500 mm3, syngeneic tumors were collected and processed for TIL analysis. […] There were approximately a 1.5 to 2-fold increase relative to the control. […] Most strikingly, the frequency of M2 macrophages was reduced by the combined therapy in comparison with both control (P<0.01) and anti-PD-1 single agent groups (P<0.05).

[3] = tested on: tumor infiltrating cells in MC38 tumors; assay: TIL analysis by flow cytometry, p53mut MC38 tumors; assay type: in vivo
Protocol: as §1

[4] = Phase I study CTR20170975 in Chinese patients: safety; assay type: in vivo, human
Protocol: (§2) Patients with advanced soft tissue sarcoma (STS), adenoid cystic carcinoma (ACC) or other solid tumors in China (CTR20170975) were treated with APG-115. In dose escalation, patients received APG-115 (100-200 mg) orally QOD for first 21 days of a 28-day cycle, until disease progression. Study objectives include safety (primary endpoint), pharmacokinetics (PK), pharmacodynamics (PD), and antitumor activity assessed every 8 weeks.
(§3) This is a Phase I study (CTR20170975) is designed to assess the safety, dose-limiting toxicities (DLT), the maximum tolerated dose (MTD)/recommended phase 2 dose (RP2D), pharmacokinetics (PK), pharmacodynamics (PD) profile and anti-tumor activity of orally administered APG-115 in Chinese patients with advanced soft tissue sarcoma and other solid tumors.
Single dose escalation study was conducted. A standard “3+3” design was employed to determine the maximum tolerated dose (MTD) of APG-115 by assessing the dose limiting toxicity (DLT) of APG-115. Three dose levels of APG-115 was tested: 100, 150, 200 mg. APG-115 was administrated orally every other day (QOD) for a consecutive 3 weeks (i.e. dosed at Day 1, 3, 5, 7, 9, 11, 13, 15, 17, 19, and 21), with one week dosing off as 4-weeks a cycle. […] The scheme of the trial design is provided below.
This study was conducted with an initial dosage of […], according to the preliminary safety results in phase I study of APG-115 in the US.

[5] = tested on: advanced soft tissue sarcoma and other solid tumors; assay: Phase I study CTR20170975: antitumor activity; assay type: in vivo, human
Protocol: as §2, §3
Among of the 14 patients, post baseline tumor measurements were obtained in 13 patients, as one subject was just starting the treatment of Cycle 2.

[6] = tested on: serum MIC-1 (PD marker of TP53 activation); assay: Phase I study CTR20170975: pharmacodynamics; assay type: in vivo, human
Protocol: as §2, §3

[7] = Phase I study APG-115-US-001: pharmacokinetics (LC/MS/MS, K2EDTA human plasma); assay type: in vivo; details: dose range of 20-300 mg
Protocol: For PK study of APG-115, APG-115 in K2EDTA human plasma was determined using an LC/MS/MS method using D5-APG-115 as the internal standard (IS). APG-115 and the IS were extracted using protein precipitation extraction from human plasma. […] MS/MS detection was set at mass transitions of m/z 642.3→246.3 for APG-115 and m/z 647.4→246.1 for D5-APG-115 (IS) in TIS positive mode.

Which results are given for CCN1[C@@H](C(=O)NC23CCC(C(=O)O)(CC2)CC3)[C@H](c2cccc(Cl)c2F)[C@]2(C(=O)Nc3cc(Cl)ccc32)C12CCCCC2 [APG-115]?
expression levels of IL-1β, IL-5, KC/GRO, IL-12p70 [1]: below detection limit; inflammatory cytokines including IFN-γ, IL-2, TNF-α, IL-10 and IL-4 ([1]; anti-CD3/anti-CD28 stimulated): upregulation; expression of TP53 and pSTAT3 proteins (MH-22A cells; Western blotting): upregulated in a dose-dependent manner; surface expression of PD-L1 (MH-22A cells; flow cytometry): dose-dependent increase; CD4+ T cells, NK cells, MDSCs, and regulatory T (Treg) cells [2]: no significant changes; CD4+ T cells, NK cells, MDSCs, and regulatory T (Treg) cells [3]: no significant changes; MTD ([4]; QOD, 21 days on 7 days off): 150 mg; Adverse Event: Abdominal distension ([4]; human, in vivo): 2 (14.3%); Adverse Event: Abdominal pain ([4]; human, in vivo): 2 (14.3%); Adverse Event: Anaemia ([4]; human, in vivo): 11 (78.6%); Adverse Event: Any AE ([4]; human, in vivo): 14 (100.0%); Adverse Event: Asthenia ([4]; human, in vivo): 2 (14.3%); Adverse Event: Blood alkaline phosphatase increased ([4]; human, in vivo): 2 (14.3%); Adverse Event: Blood creatinine increased ([4]; human, in vivo): 2 (14.3%); Adverse Event: Cancer pain ([4]; human, in vivo): 2 (14.3%); Adverse Event: Decreased appetite ([4]; human, in vivo): 2 (14.3%); Adverse Event: Febrile neutropenia ([4]; human, in vivo): 2 (14.3%); Adverse Event: Gamma-glutamyltransferase increased ([4]; human, in vivo): 4 (28.6%); Adverse Event: Headache ([4]; human, in vivo): 2 (14.3%); Adverse Event: Hypercholesterolaemia ([4]; human, in vivo): 8 (57.1%); Adverse Event: Hypertriglyceridaemia ([4]; human, in vivo): 5 (35.7%); Adverse Event: Hyperuricaemia ([4]; human, in vivo): 3 (21.4%); Adverse Event: Hypoalbuminaemia ([4]; human, in vivo): 7 (50.0%); Adverse Event: Hypokalaemia ([4]; human, in vivo): 3 (21.4%); Adverse Event: Insomnia ([4]; human, in vivo): 2 (14.3%); Adverse Event: Low density lipoprotein increased ([4]; human, in vivo): 2 (14.3%); Adverse Event: Nausea ([4]; human, in vivo): 5 (35.7%); Adverse Event: Neutrophil count decreased ([4]; human, in vivo): 5 (35.7%); Adverse Event: Oedemaperipheral ([4]; human, in vivo): 3 (21.4%); Adverse Event: Platelet count decreased ([4]; human, in vivo): 9 (64.3%); Adverse Event: Vomiting ([4]; human, in vivo): 8 (57.1%); Adverse Event: White blood cell count decreased ([4]; human, in vivo): 7 (50.0%); Grade 3 Adverse Event: Anaemia ([4]; human, in vivo): 5 (35.7%); Grade 3 Adverse Event: Any AE ([4]; human, in vivo): 10 (71.4%); Grade 3 Adverse Event: Blood creatinine increased ([4]; human, in vivo): 1 (7.1%); Grade 3 Adverse Event: Dyspnoea ([4]; human, in vivo): 1 (7.1%); Grade 3 Adverse Event: Febrile neutropenia ([4]; human, in vivo): 2 (14.3%); Grade 3 Adverse Event: Lipase increased ([4]; human, in vivo): 1 (7.1%); Grade 3 Adverse Event: Neutrophil count decreased ([4]; human, in vivo): 4 (28.6%); Grade 3 Adverse Event: Platelet count decreased ([4]; human, in vivo): 6 (42.9%); Grade 3 Adverse Event: Pulmonary embolism ([4]; human, in vivo): 1 (7.1%); Grade 3 Adverse Event: Ureteric obstruction ([4]; human, in vivo): 1 (7.1%); Grade 3 Adverse Event: Vomiting ([4]; human, in vivo): 2 (14.3%); Grade 3 Adverse Event: White blood cell count decreased ([4]; human, in vivo): 4 (28.6%); Grade 3 or 4 TRAE: anaemia ([4]; human, in vivo): 38.5%; Grade 3 or 4 TRAE: leukopenia ([4]; human, in vivo): 30.8%; Grade 3 or 4 TRAE: neutropenia ([4]; human, in vivo): 23.1%; Grade 3 or 4 TRAE: thrombocytopenia ([4]; human, in vivo): 38.5%; RP2D ([4]; human, in vivo): 100 mg; SAE, % of pts ([4]; human, in vivo): 54%; SAE, pts ([4]; human, in vivo): 7 pts; most common Grade 3 or 4 AEs ([4]; human, in vivo): hematologic toxicities, particularly thrombocytopenia; target lesion decrease in the PR patient ([5]; 150 mg, after 4 months withdraw, RECIST): ~64%; confirmed PR (Partial Response), patients ([5]; 150 mg, lipomatoid liposarcoma, TP53-WT and MDM2 Amp): 1; partial response, patients ([5]; 150 mg, liposarcoma with MDM2 amplification and TP53 wt (Example 5)): 1; patients with SD as the best overall response ([5]; 13 patients (Example 5)): 5; serum MIC-1 levels ([6]; APG-115 doses ≥100 mg, preliminary): elevated from individual baseline; MIC-1 increase ([6]; within the dose range tested (Example 5)): exposure dependent; Serum MIC-1 increase ([6]; within the dose range tested (Example 8)): exposure dependent; AUC and Cmax versus dose [7]: generally increase dose proportionally
